Assay results as given in patent publication US5300279A, “Organic amine phosphonic acid complexes for the treatment of calcific tumors” (The Dow Chemical Company, priority 1990, dated 1994).
Where two headings read alike, the source gives them in different places.

What was measured:
[1] = Excerpt: Quantitative biodistributions were obtained by injecting 50-100 microliters of the composition into the tail vein of unanesthetized male Sprague Dawley rats. The rats were then placed in cages lined with absorbent paper in order to collect all urine excreted prior to sacrifice. After a given period of time, the rats were sacrificed by cervical dislocation and the various tissues dissected. The samples were then rinsed with saline, blotted dry on absorbent paper and weighed. The radioactivity in the samples was measured with a NaI scintillation counter.
Whenever in the following examples and tables data is presented on the administered dose of radioactivity, the numbers given represent the percentage of the administered dose which localized in the indicated tissue. The ratios of radioactivity observed in bone relative to blood and muscle were calculated based on the percent dose per gram in the bone and in the blood and muscle. Whenever the ratios of radioactivity found in bone to that found in nonosseous tissue is given, the calculation was made as indicated above on a percent dose per gram basis.
A series of rats was injected with compositions containing Sm-153 EDTMP (compositions prepared as in Example 2) and sacrified in groups of five at various intervals.

tumor [2] = test system: tumor
Procedure: (§1) An English Setter with a tumor in his pelvis was injected with approximately 19 mCi of a composition containing Sm-153-EDTMP. After 2 hours, the dog was imaged using a scintillation camera.
An Irish Setter with a tumor in the femur was injected with a composition containing Sm-153-EDTMP. The leg was amputated and samples of the tumor and normal bone were analyzed for Sm-153.
(§2) An Irish setter with undifferentiated sarcoma metastatic to bone was treated with 16 mCi (0.57 mCi/kg) of a composition containing Sm-153-EDTMP. […] After approximately 3 months, when signs of lameness began to reappear, the dog was given a second treatment of 15 mCi (0.49 mCi/kg), of a composition containing Sm-153-EDTMP.

tumor [3] = test system: tumor; remark: listed apart in the source
Procedure: as §1, §2
A female Irish Wolfhound with a possible osteosarcoma on the left distal radius was injected with a composition containing ^166 Ho-EDTMP (0.97 mCi/kg).

[4] = Irish setter, nine months after second treatment

## O=P([O-])(O)CN(CCN(CP(=O)([O-])O)CP(=O)(O)O)CP(=O)([O-])O.[153Sm+3] [Example 2]
[1]; 1 Hour
  Average Percent of Injected Dose, Blood: .532% of Injected Dose
  Average Percent of Injected Dose, Kidneys: .466% of Injected Dose
  Average Percent of Injected Dose, Liver: .322% of Injected Dose
  Average Percent of Injected Dose, Skeleton: 58% of Injected Dose
  Average Percent of Injected Dose, Urine: 47% of Injected Dose
  Bone/Blood: 120
  Bone/Muscle: 300
[1]; 2 Hours
  Average Percent of Injected Dose, Blood: .032% of Injected Dose
  Average Percent of Injected Dose, Kidneys: .254% of Injected Dose
  Average Percent of Injected Dose, Liver: .252% of Injected Dose
  Average Percent of Injected Dose, Skeleton: 58% of Injected Dose
  Average Percent of Injected Dose, Urine: 49% of Injected Dose
  Bone/Blood: 1800
  Bone/Muscle: 1500
[1]; 5 Hours
  Average Percent of Injected Dose, Blood: .008% of Injected Dose
  Average Percent of Injected Dose, Kidneys: .364% of Injected Dose
  Average Percent of Injected Dose, Liver: .370% of Injected Dose
  Average Percent of Injected Dose, Skeleton: 59% of Injected Dose
  Average Percent of Injected Dose, Urine: 46% of Injected Dose
  Bone/Blood: 4200
  Bone/Muscle: 3600
[1]; 15 Min.
  Average Percent of Injected Dose, Blood: 5.852% of Injected Dose
  Average Percent of Injected Dose, Kidneys: 1.745% of Injected Dose
  Average Percent of Injected Dose, Liver: .959% of Injected Dose
  Average Percent of Injected Dose, Skeleton: 48% of Injected Dose
  Average Percent of Injected Dose, Urine: 28% of Injected Dose
  Bone/Blood: 7
  Bone/Muscle: 30
[1]; 24 Hours
  Average Percent of Injected Dose, Blood: .007% of Injected Dose
  Average Percent of Injected Dose, Kidneys: .250% of Injected Dose
  Average Percent of Injected Dose, Liver: .349% of Injected Dose
  Average Percent of Injected Dose, Skeleton: 52% of Injected Dose
  Average Percent of Injected Dose, Urine: 55% of Injected Dose
  Bone/Blood: 6700
  Bone/Muscle: 2400
[1]; 30 Min.
  Average Percent of Injected Dose, Blood: 2.304% of Injected Dose
  Average Percent of Injected Dose, Kidneys: .805% of Injected Dose
  Average Percent of Injected Dose, Liver: .526% of Injected Dose
  Average Percent of Injected Dose, Skeleton: 53% of Injected Dose
  Average Percent of Injected Dose, Urine: 42% of Injected Dose
  Bone/Blood: 20
  Bone/Muscle: 70
[1]; 48 Hours
  Average Percent of Injected Dose, Blood: .006% of Injected Dose
  Average Percent of Injected Dose, Kidneys: .286% of Injected Dose
  Average Percent of Injected Dose, Liver: .458% of Injected Dose
  Average Percent of Injected Dose, Skeleton: 60% of Injected Dose
  Average Percent of Injected Dose, Urine: 50% of Injected Dose
  Bone/Blood: 8200
  Bone/Muscle: 2800
[1]; 72 Hours
  Average Percent of Injected Dose, Blood: .006% of Injected Dose
  Average Percent of Injected Dose, Kidneys: .216% of Injected Dose
  Average Percent of Injected Dose, Liver: .492% of Injected Dose
  Average Percent of Injected Dose, Skeleton: 57% of Injected Dose
  Average Percent of Injected Dose, Urine: 53% of Injected Dose
  Bone/Blood: 7800
  Bone/Muscle: 3400
[1]; rats, up to 72 hours, words
  clearance of the radioactivity from the skeletal system: no significant clearance of the radioactivity from the skeletal system
[1]; rats, words
  blood clearance: rapid blood clearance
  uptake of the radioactivity in bone: rapid uptake of the radioactivity in bone
Tumor [2]; English Setter, tumor in pelvis, approximately 19 mCi, 2 hours
  uptake of radioactivity in the area of the tumor (scintillation scan): high uptake of radioactivity in the area of the tumor
Tumor [2]; English Setter, 2 hours
  scans compared with Tc-99m-MDP: looked very similar to an earlier scan performed using Tc-99m-MDP
Tumor [2]; English Setter, compared with Tc-99m
  lesion to normal bone ratio: very similar to that for To-99m
Tumor [2]; Irish Setter, tumor in femur, same leg
  amount of Sm-153 in the tumor relative to non-lesionous bone, per gram basis: 15-20 times
Tumor [2]; Irish setter, sarcoma metastatic to bone
  scans compared with Tc-99m-MDP: very similar to scans obtained earlier using Tc-99m-MDP
Tumor [2]; Irish setter, sarcoma metastatic to bone, 16 mCi (0.57 mCi/kg)
  uptake of Sm-153 in the area of the lesion (scintillation scans): high uptake of Sm-153 in the area of the lesion
Tumor [3]; English Setter, approximately 19 mCi, seven days after treatment
  pain / mobility: appeared to be in less pain as evidenced by an increase in its mobility
Tumor [3]; Irish setter, 16 mCi (0.57 mCi/kg), seven days after treatment
  pain / mobility / lameness: appeared to be in less pain as evidenced by an increase in mobility and a decrease in lameness
Tumor [3]; Irish setter, after first treatment 16 mCi (0.57 mCi/kg)
  time until signs of lameness began to reappear: approximately 3 months
Tumor [3]; Irish setter, eight months after second treatment
  lameness and general health: no recurrence of lameness, had gained weight and appeared healthy
Tumor [3]; Irish setter, five months after second treatment
  regression of bone lesions (X-rays): significant regression of bone lesions
Tumor [3]; [4]
  death: died of kidney failure
  total necropsy: no evidence of cancer
Tumor [3]; Irish setter, second treatment 15 mCi (0.49 mCi/kg), seven days
  mobility / lameness after second treatment: general increase in mobility and decrease in lameness
